Assay results published in patent publication US11685744B2, “CDK inhibitors and their use as pharmaceuticals” (Prelude Therapeutics, Incorporated, priority 2020, dated 2023).

Experiments:
[1] = Brain-to-plasma ratio (Kp) determination in Sprague-Dawley rats; conditions: male, rat, brain (homogenate) versus plasma, po, 10 mg/kg
Experimental: The brain-to-plasma ratio (Kp) was determined in male Sprague-Dawley rats (7-9 weeks old) four hours after a single oral dose. Rats were acclimated and given free access to standard rodent chow and water throughout the entire study. Test articles were formulated as a solution at 0.3, 0.4, 0.5, or 1.0 mg/mL in a vehicle comprised of 10:15:75 (v:v:v) dimethylacetamide (DMA):Solutol HS15:water and delivered orally at a rate of 10 mL/kg to three rats to achieve final doses of 3, 4, 5, or 10 mg/kg, respectively. At 4 hours post-dose, blood samples were collected via jugular vein cannula into tubes containing K2EDTA as the anticoagulant and stored on ice. Blood samples were then centrifuged at 4° C. at 6000 rpm for 5 minutes, and the resulting plasma was placed into tubes and stored frozen at −80° C. until analysis. Whole brain samples were also collected at 4 hours post-dose. The weight of each brain was measured and recorded, and samples were immediately stored on dry ice. Brain samples were then transferred to storage at −80° C. until analysis.
Prior to analysis, brain samples were combined with water (4 mL/1 gram of brain) and homogenized. Prior to injection, plasma and brain homogenate samples and standards were prepared for analysis by precipitation with acetonitrile or 1:1 (v:v) methanol:acetonitrile. Samples were then thoroughly mixed, centrifuged at 4000 rpm for 15 minutes, and the resulting supernatant was transferred for analysis. Test article concentrations in plasma and brain homogenate were then determined by LC-MS/MS and quantified against calibration standards prepared to known concentrations in matched blank (analyte-free) biological matrix. The Kp was then determined by dividing the dilution-corrected brain concentration by the plasma concentration from each rat. A brain density of 1 gram/mL was assumed for all calculations.

CDK4/Cyclin D1 = CDK4/Cyclin D1 (Homo sapiens (Human), UniProt P11802); assay: CDK4/CyclinD1 enzymatic activity assay (TR-FRET); assay type: biochemical; conditions: ATP 2 mM, read-out: CDK4_D1 IC50
Sequence of CDK4/Cyclin D1 (P11802 whole entry): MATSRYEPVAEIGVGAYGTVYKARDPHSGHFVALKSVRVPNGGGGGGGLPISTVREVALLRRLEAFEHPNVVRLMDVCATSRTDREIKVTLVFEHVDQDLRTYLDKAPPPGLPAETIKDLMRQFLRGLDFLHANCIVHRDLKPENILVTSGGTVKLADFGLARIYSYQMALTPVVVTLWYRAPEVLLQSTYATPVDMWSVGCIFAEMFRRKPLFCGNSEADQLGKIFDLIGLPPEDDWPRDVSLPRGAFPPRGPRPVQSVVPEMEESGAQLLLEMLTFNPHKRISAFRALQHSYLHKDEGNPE
Sequence of CDK4/Cyclin D1 (P24385 whole entry partner): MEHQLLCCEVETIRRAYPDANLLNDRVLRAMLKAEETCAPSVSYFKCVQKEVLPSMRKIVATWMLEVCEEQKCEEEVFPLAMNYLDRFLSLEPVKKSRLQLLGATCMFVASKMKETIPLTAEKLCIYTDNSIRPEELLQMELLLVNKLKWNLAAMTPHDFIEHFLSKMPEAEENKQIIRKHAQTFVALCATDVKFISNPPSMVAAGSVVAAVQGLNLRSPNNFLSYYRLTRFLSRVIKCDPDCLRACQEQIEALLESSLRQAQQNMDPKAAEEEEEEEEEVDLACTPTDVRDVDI
Procedure, shortened: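 Insect-cell CDK4/Cyclin D1 (1 nM) with ULight-4E-BP1 (100 nM) and 2 mM ATP in HEPES pH 7.4 buffer, preincubated 20 min with compound (9-dose, 3-fold dilutions); 10 mM MgCl2 started the reaction, run 60 min at 37 °C. EDTA/Eu-anti-phospho-4E-BP1 TR-FRET detection; IC50 from 4-parameter Hill fit.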

[2] = test system: MCF7 adenocarcinoma cell line; assay: Cell proliferation studies in MCF7 cells (ATP-Lite, 10 days); assay type: cell-based; conditions: Homo sapiens, 240 h, read-out: PROLIFERATION_CTG_MCF7 IC50
Procedure, shortened: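 Cells were seeded at 100 or 200 per well in DMEM with 10% FBS and dosed in quadruplicate over a 9-point 3-fold dilution. Incubation lasted 10 days at 37 °C, with media exchange and re-dosing on day 5. Viability was read by ATP-Lite luminescence and normalised to background and DMSO, giving IC50.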

CDK6/Cyclin D1 = CDK6/Cyclin D1 (Homo sapiens (Human), UniProt Q00534); assay: CDK6/CyclinD1 enzymatic activity assay (TR-FRET); assay type: biochemical; conditions: ATP 250 μM, read-out: CDK6_D1 IC50
Sequence of CDK6/Cyclin D1 (Q00534 whole entry): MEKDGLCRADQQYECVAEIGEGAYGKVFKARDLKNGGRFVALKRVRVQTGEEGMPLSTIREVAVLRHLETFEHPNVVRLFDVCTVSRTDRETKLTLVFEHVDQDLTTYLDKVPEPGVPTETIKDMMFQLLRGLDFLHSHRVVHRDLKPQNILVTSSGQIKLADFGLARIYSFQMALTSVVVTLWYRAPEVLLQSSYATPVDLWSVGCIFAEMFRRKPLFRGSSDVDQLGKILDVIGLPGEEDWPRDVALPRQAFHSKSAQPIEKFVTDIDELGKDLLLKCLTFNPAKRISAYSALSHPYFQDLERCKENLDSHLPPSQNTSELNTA
Sequence of CDK6/Cyclin D1 (P24385 whole entry partner): as the sequence (P24385 whole entry partner) above
Procedure, shortened: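 Insect-cell-expressed CDK6/Cyclin D1 (1 nM) phosphorylated ULight-4E-BP1 (100 nM) with 250 μM ATP in HEPES pH 7.4 buffer. After 20 min compound preincubation, reactions were started with 10 mM MgCl2 and run 60 min at 37 °C. EDTA-quenched samples were read by TR-FRET with Eu-anti-P-4E-BP1; IC50 from 9-dose 4-parameter fits.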

Row | Kp at 4 h [1] | IC50 (CDK4/Cyclin D1) [nM] | IC50 [2] [nM] | IC50 (CDK6/Cyclin D1) [nM] | Compound
1 | 1 to 3 | ≤ 20 | ≤ 20 | ≤ 20 | CCN1CC2(C1)CN(c1ccc(Nc3ncc(F)c(-c4cc5ncn(C(C)C)c5s4)n3)nc1)C2 [Example 129, N-(5-(6-ethyl-2,6-diazaspiro[3.3]heptan-2-yl)pyridin-2-yl)-5-fluoro-4-(3-isopropyl-3H-thieno[2,3-d]imidazol-5-yl)pyrimidin-2-amine]
2 | 1 to 3 | ≤ 20 | 20 to 200 | 20 to 200 | Cc1c(-c2nc(Nc3ccc(C4CCCN(C)C4)cn3)ncc2Cl)sc2c1ncn2C(C)C (centres unmarked) [Example 130, 5-Chloro-4-(3-isopropyl-6-methyl-3H-thieno[2,3-d]imidazol-5-yl)-N-(5-(1-methylpiperidin-3-yl)pyridin-2-yl)pyrimidin-2-amine]
